A short description of data set [1]: Plasma concentration in mouse infected with Candida albicans at 10 mg/kg, ip after 3 hrs. Type of data set: ADME, organism-based. Also noted: dose 10 mg/kg, route intraperitoneal. The conditions noted are these: read-out: MIC.
For data set [2], the system named is Candida albicans. The data set is described as follows: Antifungal activity against Candida albicans infected in mouse assessed as fungal load in brain at 10 mg/kg, ip after 10 days. Type of data set: functional. The settings on record: route intraperitoneal.
A short description of data set [3]: Plasma concentration in mouse infected with Candida albicans at 10 mg/kg, ip after 24 hrs. Also noted: dose 10 mg/kg, route intraperitoneal. The conditions noted are these: read-out: MIC. The format is ADME, organism-based.
The test system of data set [4] is Candida albicans. The data set can be described thus: Antifungal activity against Candida albicans infected in mouse assessed as decrease in fungus-induced mortality rate at 5 mg/kg, ip. The arrangement: dose 5 mg/kg. The format is functional, organism-based.
The subject of data set [5] is Candida albicans. The data set can be described thus: Antifungal activity against Candida albicans infected in mouse assessed as decrease in fungal load in brain at 5 mg/kg, ip after 10 days. Type of data set: functional, organism-based. Also noted: dose 5 mg/kg.
The subject of data set [6] is Candida albicans. The data set can be described thus: Antifungal activity against Candida albicans. The format is functional.
A short description of data set [7]: Plasma concentration in mouse infected with Candida albicans at 5 mg/kg, ip after 1 hr. Also noted: dose 5 mg/kg, route intraperitoneal. The conditions noted are these: read-out: MIC. The format is ADME, organism-based.
The nature of data set [8]: Plasma concentration in mouse infected with Candida albicans at 10 mg/kg, ip after 6 hrs. Also noted: dose 10 mg/kg, route intraperitoneal. The format is ADME, organism-based. The conditions noted are these: read-out: MIC.
A short description of data set [9]: Plasma concentration in mouse infected with Candida albicans at 5 mg/kg, ip after 12 hrs. The format is ADME, organism-based. The arrangement: dose 5 mg/kg, route intraperitoneal. The settings on record: read-out: MIC.
A short description of data set [10]: Plasma concentration in mouse infected with Candida albicans at 5 mg/kg, ip after 6 hrs. Type of data set: ADME, organism-based. The arrangement: dose 5 mg/kg, route intraperitoneal. The settings on record: read-out: MIC.
Data set [11] is described as follows: Plasma concentration in mouse infected with Candida albicans at 5 mg/kg, ip after 24 hrs. The format is ADME, organism-based. The arrangement: dose 5 mg/kg, route intraperitoneal. The conditions noted are these: read-out: MIC.
Data set [12] in a line: Plasma concentration in mouse infected with Candida albicans at 10 mg/kg, ip after 12 hrs. Type of data set: ADME, organism-based. Also noted: dose 10 mg/kg, route intraperitoneal. The settings on record: read-out: MIC.
Data set [13] can be described thus: Plasma concentration in mouse infected with Candida albicans at 5 mg/kg, ip after 3 hrs. Also noted: dose 5 mg/kg, route intraperitoneal. The conditions noted are these: read-out: MIC. Type of data set: ADME, organism-based.
A short description of data set [14]: Plasma concentration in mouse infected with Candida albicans at 10 mg/kg, ip after 1 hr. The conditions noted are these: read-out: MIC. Type of data set: ADME, organism-based. Also noted: dose 10 mg/kg, route intraperitoneal.
Data set [15] is described as follows: Plasma concentration in mouse infected with Candida albicans at 60 mg/kg, po after 6 hrs. Type of data set: ADME, organism-based. The arrangement: dose 60 mg/kg, route oral. The conditions noted are these: read-out: MIC.
For data set [16], the system named is Candida albicans. The data set is described as follows: Antifungal activity against Candida albicans infected in mouse assessed as decrease in fungus-induced mortality rate at 10 mg/kg, ip. The format is functional, organism-based. Also noted: dose 10 mg/kg.
Data set [17] in a line: Plasma concentration in mouse infected with Candida albicans at 60 mg/kg, po after 3 hrs. The format is ADME, organism-based. Also noted: dose 60 mg/kg, route oral. The settings on record: read-out: MIC.
For data set [18], the system named is Candida albicans. The data set is described as follows: Antifungal activity against Candida albicans infected in mouse assessed as fungal load in brain at 60 mg/kg, po after 10 days. Type of data set: functional.
A short description of data set [19]: Plasma concentration in mouse infected with Candida albicans at 60 mg/kg, po after 1 hr. Type of data set: ADME, organism-based. The arrangement: dose 60 mg/kg, route oral. The conditions noted are these: read-out: MIC.
The nature of data set [20]: Plasma concentration in mouse infected with Candida albicans at 60 mg/kg, po after 12 hrs. Type of data set: ADME, organism-based. The arrangement: dose 60 mg/kg, route oral. The settings on record: read-out: MIC.
Data set [21] has as its system Candida albicans. The data set is described as follows: Antifungal activity against Candida albicans infected in mouse assessed as decrease in fungus-induced mortality rate at 60 mg/kg, po. The format is functional, organism-based. Also noted: dose 60 mg/kg.
Data set [22] can be described thus: Plasma concentration in mouse infected with Candida albicans at 60 mg/kg, po after 24 hrs. The format is ADME, organism-based. Also noted: dose 60 mg/kg, route oral. The settings on record: read-out: MIC.

Converted amounts (≈) assume the structure as drawn. The source made the active and inactive calls. The rule behind the calls is not given here. Numbered stars: 1 amine (or outer) side, 2 acyl side, 3 side chain; on linkers, the order of the positions; unused ones are H or OH. Bridge positions count the residues as written; N and C are the ends. Square brackets hold non-standard residues; d marks the D form. Peptide text beside a SMILES is read from it. * marks the point of attachment. pTerphenylCO(4''-OnC5H11) = CCCCCOc1ccc(-c2ccc(-c3ccc(C(=O)*)cc3)cc2)cc1; Orn(4R-OH,5R-OH) = O=C([C@H](C[C@@H](O)[C@@H](O)N[*:3])N[*:1])[*:2]; hTyr(3S-OH,4S-OH) = N[C@H](C(=O)O)[C@H](O)[C@@H](O)c1ccc(O)cc1; Pro(3S-OH,4S-Me) = C[C@H]1CN[C@H](C(=O)O)[C@H]1O; Hyp = O=C(O)[C@@H]1C[C@@H](O)CN1

As to `CCCCCOc1ccc(-c2ccc(-c3ccc(C(=O)N[C@H]4C[C@@H](O)[C@@H](O)NC(=O)[C@@H]5[C@@H](O)[C@@H](C)CN5C(=O)[C@H]([C@@H](C)O)NC(=O)[C@H]([C@H](O)[C@@H](O)c5ccc(O)cc5)NC(=O)[C@@H]5C[C@@H](O)CN5C(=O)[C@H]([C@@H](C)O)NC4=O)cc3)cc2)cc1` [ANIDULAFUNGIN] ({pTerphenylCO(4''-OnC5H11)}-[Orn(4R-OH,5R-OH)]T[Hyp][hTyr(3S-OH,4S-OH)]T[Pro(3S-OH,4S-Me)]; lactam 1-C), the concentration at 3 h worked out at 4910 ng/mL in data set [1] and 1730 ng/mL in [13]. The log10CFU/g with Candida albicans [2] came to 2.65. For the same molecule, the concentration at 24 h in data set [3] came to 1390 ng/mL; in [11], 180 ng/mL. The inhibition result with Candida albicans [4] and in the data set with Candida albicans [5] was “inactive” in each case. In the data set on Candida albicans [6], the MIC was found to be 0.03 µg/mL (≈ 0.0263 µM). Further, the concentration at 1 h was found to be 2500 ng/mL in [7] and 4020 ng/mL in [14]. Further, the concentration at 6 h in data set [8] came to 3180 ng/mL; in data set [10] it was 1660 ng/mL. Also, the concentration at 12 h in [9] turned out to be 1180 ng/mL; in data set [12], 2730 ng/mL.

As to `C[C@@H](c1ncncc1F)[C@](O)(Cn1cncn1)c1ccc(F)cc1F` [VORICONAZOLE], in data set [15], the concentration at 6 h is 9470 ng/mL. Further, the outcome in the data set with Candida albicans [16] was Active. Further, the MIC in the data set on Candida albicans [6] came to 0.06 µg/mL (≈ 0.172 µM). Besides, in [17], the concentration at 3 h stood at 7280 ng/mL. Further, in the data set on Candida albicans [18], the log10CFU/g is recorded as 3.23. Besides, the concentration at 1 h in data set [19] worked out at 7410 ng/mL. For the same molecule, the concentration at 12 h in data set [20] turned out to be 5370 ng/mL. In addition, the inhibition entry with Candida albicans [21] is “Active”. Besides, the concentration at 24 h in data set [22] came to 160 ng/mL.
